The values below come from article PMC8119466, “A screen of FDA-approved drugs identifies inhibitors of protein tyrosine phosphatase 4A3 (PTP4A3 or PRL-3)” (Scientific Reports, 2021).

Common to all, as to format: biochemical
In test [1] the target is T1, recombinant PRL-1 (Homo sapiens, UniProt Q93096).
T1 construct: 6xHis (N, cleaved yes); made in house; host or cells: E. coli One Shot BL21 Star
T1 sequence (Q93096 1-173): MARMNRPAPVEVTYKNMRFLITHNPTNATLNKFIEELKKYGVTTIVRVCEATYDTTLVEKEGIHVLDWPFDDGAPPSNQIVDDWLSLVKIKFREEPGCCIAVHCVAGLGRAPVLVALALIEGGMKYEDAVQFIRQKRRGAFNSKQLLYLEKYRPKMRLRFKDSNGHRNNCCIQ
The experiment in a line: In vitro phosphatase assay (DiFMUP hydrolysis), PRL-1. The following applies: for % Phosphatase Activity (compared to DMSO) PRL-1: FDA-approved drug screen.

Test [2] concerns the target T2, recombinant PRL-3 (Homo sapiens, UniProt O75365).
T2 construct: 6xHis (N, cleaved yes); made in house; host or cells: E. coli One Shot BL21 Star
The experiment in a line: In vitro phosphatase assay (DiFMUP hydrolysis), PRL-3. As to conditions: for % Phosphatase Activity (compared to DMSO) PRL-3: FDA-approved drug screen.

Test [3] has as its target T3, recombinant PRL-2 (Homo sapiens, UniProt Q12974).
T3 construct: 6xHis (N, cleaved yes); made in house; host or cells: E. coli One Shot BL21 Star
T3 sequence (Q12974 1-167): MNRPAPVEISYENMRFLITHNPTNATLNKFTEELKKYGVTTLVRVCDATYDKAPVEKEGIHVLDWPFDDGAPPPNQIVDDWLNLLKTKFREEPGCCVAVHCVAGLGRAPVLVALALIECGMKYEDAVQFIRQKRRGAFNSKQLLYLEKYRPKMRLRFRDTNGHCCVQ
The experiment in a line: In vitro phosphatase assay (DiFMUP hydrolysis), PRL-2.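 As to all read-outs here: PRL-2 activity read as DiFMUP hydrolysis after 20 min at room temperature with drug, enzyme first pre-reduced at 4 °C for 20 min.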 As to conditions: for % Phosphatase Activity (compared to DMSO) PRL-2: FDA-approved drug screen.

The structures appear in SMILES notation.

T2 sequence (O75365 whole entry): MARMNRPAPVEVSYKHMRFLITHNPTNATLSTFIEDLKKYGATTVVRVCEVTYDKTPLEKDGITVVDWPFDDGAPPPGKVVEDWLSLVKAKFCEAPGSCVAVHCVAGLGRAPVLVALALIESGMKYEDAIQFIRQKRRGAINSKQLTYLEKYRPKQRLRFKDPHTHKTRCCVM

Regarding `C[C@]12CCC3=C4CCC(=O)C=C4CC[C@H]3[C@@H]1CC[C@@]2(O)CC#N` [Dienogest], in test [1] (compared to DMSO), the “% Phosphatase Activity (compared to DMSO) PRL-1” value is 100%. Also, the “% Phosphatase Activity (compared to DMSO) PRL-3” value in test [2] (compared to DMSO) turned out to be 72%. For the same compound, the “% Phosphatase Activity (compared to DMSO) PRL-2” value in test [3] (compared to DMSO) came out at 78%.

As to `O=C(O)CCCCCCCC(=O)O` [Azelaic acid], in test [1] (compared to DMSO), the “% Phosphatase Activity (compared to DMSO) PRL-1” value came out at 94%. The “% Phosphatase Activity (compared to DMSO) PRL-3” value in test [2] (compared to DMSO) was found to be 95%. Further, in test [3] (compared to DMSO), the “% Phosphatase Activity (compared to DMSO) PRL-2” value was 98%.

Consider `Cc1cc(Nc2cc(CN3CCOCC3)c3nc(C)c(Cc4ccc(Cl)cc4F)n3n2)n[nH]1` [LY2784544], for which the “% Phosphatase Activity (compared to DMSO) PRL-1” value in test [1] (compared to DMSO) was determined as 146%. Moreover, the “% Phosphatase Activity (compared to DMSO) PRL-3” value in test [2] (compared to DMSO) was found to be 95%. In addition, the “% Phosphatase Activity (compared to DMSO) PRL-2” value in test [3] (compared to DMSO) turned out to be 167%.

Consider `CNS(=O)(=O)Cc1ccc2[nH]cc(CCN(C)C)c2c1` [Sumatriptan Succinate], for which the “% Phosphatase Activity (compared to DMSO) PRL-1” value in test [1] (activity compared to DMSO) amounted to 99%. Moreover, the “% Phosphatase Activity (compared to DMSO) PRL-3” value in test [2] (activity compared to DMSO) was determined as 80%. Further, the “% Phosphatase Activity (compared to DMSO) PRL-2” value in test [3] (activity compared to DMSO) stood at 84%.

As for `CN1CCN(c2c(F)cc3c(=O)c(C(=O)O)cn4c3c2OCN4C)CC1` [Marbofloxacin], the “% Phosphatase Activity (compared to DMSO) PRL-1” value in test [1] (compared to DMSO) is given as 345%. Besides, the “% Phosphatase Activity (compared to DMSO) PRL-3” value in test [2] (compared to DMSO) is recorded as 180%. Besides, the “% Phosphatase Activity (compared to DMSO) PRL-2” value in test [3] (compared to DMSO) is 386%.

As for `Oc1c(Cl)cc(Cl)c(Cl)c1Cc1c(O)c(Cl)cc(Cl)c1Cl` [Hexachlorophene, reference compound], the IC50 (usually the midpoint of a concentration-inhibition curve) in test [1] (2.5 µM protein, DiFMUP at KM, read-out: Calculated IC50, PRL-1 phosphatase activity) was 31 ± 4 µM; in test [2] (2.5 µM protein, DiFMUP at KM, read-out: Calculated IC50, PRL-3 phosphatase activity), 13 ± 1 µM; in test [3] (2.5 µM protein, DiFMUP at KM, read-out: Calculated IC50, PRL-2 phosphatase activity), 35 ± 10 µM. The “% Phosphatase Activity (compared to DMSO) PRL-1” value in test [1] (compared to DMSO) is -2.83%. Also, the “% Phosphatase Activity (compared to DMSO) PRL-3” value in test [2] (compared to DMSO) was -4%. Moreover, the “% Phosphatase Activity (compared to DMSO) PRL-2” value in test [3] (compared to DMSO) is on record as -9%.

`CCCc1nc(C)c2c(=O)[nH]c(-c3cc(S(=O)(=O)N4CCN(CC)CC4)ccc3OCC)nn12.Cl.O.O.O` [Vardenafil HCl Trihydrate]: the “% Phosphatase Activity (compared to DMSO) PRL-1” value in test [1] (activity compared to DMSO) came out at 98%. In addition, the “% Phosphatase Activity (compared to DMSO) PRL-3” value in test [2] (activity compared to DMSO) is given as 84%. Besides, the “% Phosphatase Activity (compared to DMSO) PRL-2” value in test [3] (activity compared to DMSO) was found to be 98%.

For `Cl.O=C1OC(CN2CCOCC2)CN1/N=C/c1ccc([N+](=O)[O-])o1` (stereo not drawn) [Furaltadone HCl], in test [1] (compared to DMSO), the “% Phosphatase Activity (compared to DMSO) PRL-1” value was determined as 74%. In test [2] (compared to DMSO), the “% Phosphatase Activity (compared to DMSO) PRL-3” value is recorded as 65%. Further, the “% Phosphatase Activity (compared to DMSO) PRL-2” value in test [3] (compared to DMSO) came to 80%.

In the case of `C[C@]12CC[C@@H]3c4ccc(O)cc4CC[C@H]3[C@@H]1C[C@@H](O)[C@@H]2O` [Estriol], the “% Phosphatase Activity (compared to DMSO) PRL-1” value in test [1] (compared to DMSO) was 117%. In test [2] (compared to DMSO), the “% Phosphatase Activity (compared to DMSO) PRL-3” value is reported as 79%. Further, the “% Phosphatase Activity (compared to DMSO) PRL-2” value in test [3] (compared to DMSO) is on record as 111%.

With `COc1ccc(C[C@H](N)C(=O)N[C@H]2[C@@H](O)[C@H](n3cnc4c(N(C)C)ncnc43)O[C@@H]2CO)cc1.Cl.Cl` [Puromycin 2HCl], in test [1] (compared to DMSO), the “% Phosphatase Activity (compared to DMSO) PRL-1” value is recorded as 106%. Besides, the “% Phosphatase Activity (compared to DMSO) PRL-3” value in test [2] (compared to DMSO) is reported as 113%. Also, in test [3] (compared to DMSO), the “% Phosphatase Activity (compared to DMSO) PRL-2” value stood at 101%.

With `C[C@@H](O)[C@H]1C(=O)N2C(C(=O)[O-])=C(SC3Cn4cnc[n+]4C3)[C@H](C)[C@H]12` (stereo partly drawn) [Biapenem], in test [1] (compared to DMSO), the “% Phosphatase Activity (compared to DMSO) PRL-1” value came to 100%. In addition, in test [2] (compared to DMSO), the “% Phosphatase Activity (compared to DMSO) PRL-3” value was found to be 93%. The “% Phosphatase Activity (compared to DMSO) PRL-2” value in test [3] (compared to DMSO) was 74%.

As to `CC[C@@H]1C(=O)N(C)c2cnc(Nc3ccc(C(=O)N[C@H]4CC[C@H](N5CCN(CC6CC6)CC5)CC4)cc3OC)nc2N1C(C)C` [Volasertib (BI 6727)], the “% Phosphatase Activity (compared to DMSO) PRL-1” value in test [1] (activity compared to DMSO) is recorded as 97%. In test [2] (activity compared to DMSO), the “% Phosphatase Activity (compared to DMSO) PRL-3” value is given as 87%. The “% Phosphatase Activity (compared to DMSO) PRL-2” value in test [3] (activity compared to DMSO) was found to be 112%.

As to `CC1=C(/C=C/C(C)=C/C=C/C(C)=C\C(=O)O)C(C)(C)CCC1` [Isotretinoin], in test [1] (compared to DMSO), the “% Phosphatase Activity (compared to DMSO) PRL-1” value was found to be 72%. In addition, the “% Phosphatase Activity (compared to DMSO) PRL-3” value in test [2] (compared to DMSO) is given as 57%. Moreover, the “% Phosphatase Activity (compared to DMSO) PRL-2” value in test [3] (compared to DMSO) worked out at 71%.

In the case of `N[C@@H](CC(=O)N1CCn2c(nnc2C(F)(F)F)C1)Cc1cc(F)c(F)cc1F` [Sitagliptin phosphate monohydrate], the “% Phosphatase Activity (compared to DMSO) PRL-1” value in test [1] (activity compared to DMSO) is given as 117%. Also, in test [2] (activity compared to DMSO), the “% Phosphatase Activity (compared to DMSO) PRL-3” value is listed as 89%. The “% Phosphatase Activity (compared to DMSO) PRL-2” value in test [3] (activity compared to DMSO) turned out to be 120%.

As for `COc1nc(C)nc(Cl)c1N=C1NCCN1` [Moxonidine], the “% Phosphatase Activity (compared to DMSO) PRL-1” value in test [1] (compared to DMSO) came to 105%. Further, the “% Phosphatase Activity (compared to DMSO) PRL-3” value in test [2] (compared to DMSO) is given as 80%. In addition, the “% Phosphatase Activity (compared to DMSO) PRL-2” value in test [3] (compared to DMSO) is given as 109%.

Regarding `O=C(O)c1cc(=O)c2ccccc2o1` [Chromocarb], the “% Phosphatase Activity (compared to DMSO) PRL-1” value in test [1] (compared to DMSO) was 95%. In test [2] (compared to DMSO), the “% Phosphatase Activity (compared to DMSO) PRL-3” value was 85%. The “% Phosphatase Activity (compared to DMSO) PRL-2” value in test [3] (compared to DMSO) is given as 102%.
